These are literature values, as cited in patent publication US8889745B2 (Nanunanu Ltd., priority 2006, dated 2014).

The aqueous solubility is how much of the substance goes into solution per volume.

In brackets after ≈: the same amount, converted by molar mass.

Regarding `C[C@@H]1C[C@H]2[C@@H]3CCC4=CC(=O)C=C[C@]4(C)[C@@]3(F)[C@@H](O)C[C@]2(C)[C@@]1(O)C(=O)CO` [dexamethasone], the aqueous solubility was 88 µg/mL (≈ 224 µM).
